Results reported in patent US8349835B2, “Aromatic ring fused triazine derivatives and uses thereof” (Shenyang Pharmaceutical University, priority 2008, dated 2013).
pIC50: −log10 of the molar value.

Legend:
[1] = test system: Microvascular Endothelial Cells (MVEC); experiment: MTT growth inhibition of MVEC; type: cell-based; details: Endothelial cell, 96 h, 4 days culture with drug, read-out: IG50 on inhibiting growth of MVEC
Method: In Vitro Anti-Tumor Activity Test
Put cell suspension into centrifugal tubes with a pipette under sterile conditions, then the cell suspension was centrifuged for 3 minutes at 1300 rpm. Discarded the supernatant lightly and added fresh culture medium. Mixed the cells by pipetting, then transferred the cells into culture flasks, and put them into the CO2 incubator. Changed the culture medium once after 24 hours.
Human prostate cancer cells (DU145, PC-3) were cultured in a medium containing RPMI1640 basic medium supplemented with 10% heat-inactivated FBS, 100 IU/mL penicillin, 100 μg/mL streptomycin and 1 mmol/L L-glutamine. Human breast carcinoma cells (T47D, MDA-MB231) were cultured in a medium containing RPM11640 basic medium supplemented with 10% heat-inactivated FBS, 5 μg/mL insulin, 100 IU/mL penicillin, 100 μg/mL streptomycin and 1 mmol/L L-glutamine. Human breast carcinoma cells (MCF-7) were cultured in a medium containing DMEM basic medium supplemented with 10% heat-inactivated FBS, 5 μg/mL insulin, 100 IU/mL penicillin, 100 μg/mL streptomycin and […]. Murine Lewis lung cancer cells (LL/2), murine melanoma cells (B16FD) and Microvascular Endothelial Cells (MVEC) were cultured in a medium containing DMEM basic medium supplemented with 10% heat-inactivated FBS, 4.5 g/L glucose, 1.5 g/L NaHCO3, 100 IU/mL penicillin, 100 μg/mL streptomycin and 4 mmol/L L-glutamine. All these cell lines were incubated at 37° C. biochemical incubator with 5% CO2 saturated humidity.
After resuscitation, the cells were passed for 2-3 generations till they became stable, then they were used for the experiments. Each passage was based on the standard that all cells were spread over the bottoms of culture flasks.
Cells were digested off from the bottoms of culture flasks with trypsin (0.25%). The cell dissociation buffer was transferred into centrifuge tubes, added medium to stop the digestion, and centrifuged for 3 minutes at 1300 rpm. Discarded the supernatant lightly and added fresh culture medium (5 mL). Mixed the cells by pipetting, then added 10 μL of the cell suspension into the cell counting plate, and adjusted the cell concentration to 2×10^4 cells/mL. Added 100 μL of the cell suspension to all wells on the 96 well plates, except A1 well as the blank control. Put the plates into the biochemical incubator for 24 hours and to make sure the cells grew along the walls.
The drugs were dissolved in 80 mmol/L DMSO first, and then diluted the drugs with ethanol to 8 mmol/L. The solution was further diluted with the culture medium to different concentrations as 160 μmol/L, 120 μmol/L, 80 μmol/L, 40 μmol/L, 20 μmol/L and 10 μmol/L. Added 100 μL of the drug solution to each well on the 96 well plates. Therefore, the final concentrations of the drugs that were added to the cells were 80 μmol/L, 40 μmol/L, 20 μmol/L, 10 μmol/L and 5 μmol/L, and each concentration were repeated in three parallel wells. Put the culture plates into the biochemical incubator to culture continuously for 4 days.
Added 50 μL MTT liquids (2 mg/mL) into each well, put the culture plates into the biochemical incubator for 4 h, discarded MTT liquids (TCC), added 200 μL DMSO, then oscillated for 10 minutes on the magnetic oscillator to make sure that the survived cells and the reaction product of MTT were fully dissolved. Detected and recorded the absorbance (OD) values of each well at the wavelength of 570 nm using the microplate reader. The OD values of cells without tested drugs were used as control. The cell growth inhibition rates under each drug concentration were calculated by the following formula. […] Inhibition rate of growth(%)=(1−The absorbance(OD)of cells with tested drugs/The absorbance(OD)of the blank control group)×100%
The absorbance (OD) of cells with tested drugs: OD value is measured with the test drugs.
The absorbance (OD) of the blank control group: OD value is measured without the test drugs. […]

[2] = test system: chorioallantoic membrane vessels; experiment: Activity test by chick chorioallantoic membrane method; type: in vivo; details: 5 uL medicine on cellulose membrane, chick embryo, 2 days
Method: After the shell membrane became wet, tore it open with ophthalmological tweezers so to expose the chorioallantoic membrane. • 6) Added 5 uL of selected medicine to a 0.5×0.5 cm cellulose membrane sterilized by high pressure, then set the membrane on the part of the chorioallantoic membrane with fewer vessels • 7) Closed the window, and put the embryos back into the hatch box to hatch for 2 days. • 8) Opened the transparent tape, and then opened the mixed cellulose membrane lightly with a tweezers. Measured the avascular area and took photographs.

Rat aortic ring = experiment: Rat Aortic Ring Assay; type: cell-based; details: for Rat Aortic Ring Assay (10 ug/ml), result in words: observed on the sixth day; for inhibition at 10 µg/mL: Rattus norvegicus, 10 ug/ml, compared with blank control, sixth day
Outline: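 1 mm abdominal aortic rings from 6-week-old SD animals embedded in Matrigel, cultured in DMEM/10% FBS with compound at various concentrations (≥3 wells), medium and compound renewed day 3. Microvessel area imaged on day 6 (×100, 3 random rings); inhibition rate scored: ⋆<30-60%, ⋆⋆60-90%, ⋆⋆⋆>90%.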

VEGFR-2 = VEGFR-2 (Homo sapiens, UniProt P35968); experiment: VEGFR-2 inhibition rate test (kinase assay kit, colorimetric ELISA); details: concentration not given
Sequence of VEGFR-2 (P35968 20-1356): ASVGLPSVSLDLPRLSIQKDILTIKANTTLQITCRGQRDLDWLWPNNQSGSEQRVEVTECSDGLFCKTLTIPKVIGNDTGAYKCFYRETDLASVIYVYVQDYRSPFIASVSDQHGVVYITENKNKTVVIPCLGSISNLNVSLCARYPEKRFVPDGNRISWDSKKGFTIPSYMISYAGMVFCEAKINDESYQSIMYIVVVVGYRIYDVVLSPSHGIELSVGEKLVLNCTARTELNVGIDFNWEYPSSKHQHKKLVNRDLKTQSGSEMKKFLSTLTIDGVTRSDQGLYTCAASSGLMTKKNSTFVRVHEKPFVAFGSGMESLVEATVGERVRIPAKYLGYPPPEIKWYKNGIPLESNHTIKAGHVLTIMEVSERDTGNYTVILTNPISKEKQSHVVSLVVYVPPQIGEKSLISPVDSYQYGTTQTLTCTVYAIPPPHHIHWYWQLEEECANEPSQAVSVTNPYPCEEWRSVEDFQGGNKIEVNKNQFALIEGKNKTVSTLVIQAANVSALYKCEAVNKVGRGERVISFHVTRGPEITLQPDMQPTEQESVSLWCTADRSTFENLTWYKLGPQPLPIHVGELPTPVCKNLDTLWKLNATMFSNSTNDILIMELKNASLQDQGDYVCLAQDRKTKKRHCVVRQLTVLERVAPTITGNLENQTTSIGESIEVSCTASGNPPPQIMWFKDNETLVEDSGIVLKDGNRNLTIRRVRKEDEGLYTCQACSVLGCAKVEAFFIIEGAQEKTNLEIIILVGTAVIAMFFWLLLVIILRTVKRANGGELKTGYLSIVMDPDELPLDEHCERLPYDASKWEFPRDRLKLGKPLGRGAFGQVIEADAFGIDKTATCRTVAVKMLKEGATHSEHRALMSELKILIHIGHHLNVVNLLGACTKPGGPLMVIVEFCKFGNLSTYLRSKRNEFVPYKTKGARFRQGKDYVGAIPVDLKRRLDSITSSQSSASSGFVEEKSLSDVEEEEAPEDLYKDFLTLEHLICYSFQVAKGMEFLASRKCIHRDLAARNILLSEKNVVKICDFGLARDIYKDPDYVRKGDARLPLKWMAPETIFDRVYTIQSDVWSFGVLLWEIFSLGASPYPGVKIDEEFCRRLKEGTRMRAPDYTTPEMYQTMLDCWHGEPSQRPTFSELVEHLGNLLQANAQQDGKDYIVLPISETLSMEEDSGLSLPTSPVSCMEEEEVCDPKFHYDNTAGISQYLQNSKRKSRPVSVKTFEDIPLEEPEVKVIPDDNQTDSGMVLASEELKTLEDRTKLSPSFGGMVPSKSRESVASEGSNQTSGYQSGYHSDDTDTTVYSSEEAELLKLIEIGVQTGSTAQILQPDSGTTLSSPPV

## CCCCCOc1cc2nnnc(Nc3cc(F)cc(F)c3)c2cc1OC [Example 47, 6-methoxy-7-pentyloxy-4-(3,5-difluoroanilino)-benzo[d][1,2,3]triazine]
[1]
  pIC50: 4.55
[2]
  The inhibitory effect on the growth of chorioallantoic membrane vessels: The vessels in the paper covered zone become fewer,
Rat aortic ring
  Rat Aortic Ring Assay (10 ug/ml), result in words: No significant inhibition

## CCOc1cc2nnnc(Nc3ccc(F)c(C(F)(F)F)c3)c2cc1OC [Example 40, 6-methoxy-7-ethoxy-4-(3-trifluoromethyl-4-fluoroanilino)-benzo[d][1,2,3]triazine]
[1]
  pIC50: 4.50
[2]
  The inhibitory effect on the growth of chorioallantoic membrane vessels: One of the two samples exhibits inhibition
Rat aortic ring
  Rat Aortic Ring Assay (10 ug/ml), result in words: No significant inhibition

## CCOc1cc2nnnc(Nc3cccc(OC(F)(F)F)c3)c2cc1OC [Example 36, 6-methoxy-7-ethoxy-4-(3-trifluoromethoxyanilino)-1,2,3-benzotriazine]
[1]
  pIC50: 4.63
[2]
  The inhibitory effect on the growth of chorioallantoic membrane vessels: One sample exhibits no vascular growth at the zone covered by paper.
Rat aortic ring
  Rat Aortic Ring Assay (10 ug/ml), result in words: Almost complete inhibition (10 μg/mL)

## CCCCOc1cc2nnnc(Nc3ccc(F)c(C(F)(F)F)c3)c2cc1OC [Example 23, 6-methoxy-7-n-butoxy-4-(3-trifluoromethyl-4-fluoroanilino)-benzo[d][1,2,3]triazine]
[1]
  pIC50: 4.79
[2]
  The inhibitory effect on the growth of chorioallantoic membrane vessels: The vessels covered by paper become thinner and fewer.
Rat aortic ring
  Rat Aortic Ring Assay (10 ug/ml), result in words: Cell morphology was similar to D10, and cells were linear.

## CCCCCOc1cc2nnnc(Nc3cccc(C(F)(F)F)c3)c2cc1OC [Example 50, 6-methoxy-7-pentyloxy-4-(3-trifluoromethylanilino)-benzo[d][1,2,3]triazine]
[2]
  The inhibitory effect on the growth of chorioallantoic membrane vessels: One of the two samples exhibits inhibition ring.
Rat aortic ring
  Rat Aortic Ring Assay (10 ug/ml), result in words: No significant inhibition compared with the blank control
VEGFR-2
  Kinase inhibition rate (VEGFR-2): −9.35

## CCCCCOc1cc2nnnc(Nc3cccc(OC(F)(F)F)c3)c2cc1OC [Example 53, 6-methoxy-7-pentyloxy-4-(3-trifluoromethoxyanilino)-benzo[d][1,2,3]triazine]
[1]
  pIC50: 4.42
[2]
  The inhibitory effect on the growth of chorioallantoic membrane vessels: Both of the samples exhibit inhibition ring at the central part of the paper,
Rat aortic ring
  Rat Aortic Ring Assay (10 ug/ml), result in words: No significant inhibition
VEGFR-2
  Kinase inhibition rate (VEGFR-2): 11.22

## Fc1ccc(Nc2nnnc3ccc(Cl)nc23)cc1C(F)(F)F [Example 90, 6-chloro-4-(3-trifluoromethyl-4-fluoroanilino)pyrido[3,2-d][1,2,3]-triazine]
[1]
  pIC50: 4.97
[2]
  The inhibitory effect on the growth of chorioallantoic membrane vessels: One exhibits no inhibition, and embryo of the other sample is dead.

## COc1cc2c(Nc3ccc(F)cc3)nnnc2cc1OCCCCl [Example 76, 6-methoxy-7-chloropropoxy-4-(4-fluoroanilino)-benzo[d][1,2,3]triazine]
[1]
  pIC50: 4.64
[2]
  The inhibitory effect on the growth of chorioallantoic membrane vessels: The vessels become rare at the zone covered by paper.
Rat aortic ring
  Rat Aortic Ring Assay (10 ug/ml), result in words: No significant inhibition
VEGFR-2
  Kinase inhibition rate (VEGFR-2): 9.35

## COc1cc2c(Nc3ccc(Br)c(F)c3)nnnc2cc1OCCCCl [Example 62, 6-methoxy-7-chloropropoxy-4-(3-fluoro-4-bromoanilino)-benzo[1,2,3]triazine]
[2]
  The inhibitory effect on the growth of chorioallantoic membrane vessels: The embryo is dead.
Rat aortic ring
  Rat Aortic Ring Assay (10 ug/ml), result in words: No significant inhibition
VEGFR-2
  Kinase inhibition rate (VEGFR-2): 18.10

## COc1cc2c(Nc3cccc(C(F)(F)F)c3)nnnc2cc1OCCCCl [Example 67, 6-methoxy-7-chloropropoxy-4-(3-trifluoromethylanilino)-benzo[d][1,2,3]triazine]
[1]
  pIC50: 4.67
[2]
  The inhibitory effect on the growth of chorioallantoic membrane vessels: The embryo is dead.
Rat aortic ring
  inhibition at 10 µg/mL: > 50%
VEGFR-2
  Kinase inhibition rate (VEGFR-2): 0.26

## CCCCOc1cc2nnnc(Nc3ccc(F)c(Cl)c3)c2cc1OC [Example 22, 6-methoxy-7-n-butoxy-4-(3-chloro-4-fluoroanilino)-benzo[d][1,2,3]triazine]
[1]
  pIC50: 4.76
[2]
  The inhibitory effect on the growth of chorioallantoic membrane vessels: The vessels are fractured at the central part that is covered by paper.
Rat aortic ring
  Rat Aortic Ring Assay (10 ug/ml), result in words: Cell proliferation and migration were affected. Endothelial cell
VEGFR-2
  Kinase inhibition rate (VEGFR-2): 0.80

## CCCCOc1cc2nnnc(Nc3cccc(OC(F)(F)F)c3)c2cc1OC [Example 19, 6-methoxy-7-n-butoxy-4-(3-trifluoromethoxyanilino)-benzo[d][1,2,3]triazine]
[2]
  The inhibitory effect on the growth of chorioallantoic membrane vessels: Vessels are broken in one of two samples,
Rat aortic ring
  Rat Aortic Ring Assay (10 ug/ml), result in words: No significant inhibition compared with the blank control.
VEGFR-2
  Kinase inhibition rate (VEGFR-2): −56.68

## CCOc1cc2nnnc(Nc3ccc(F)c(Cl)c3)c2cc1OC [Example 39, 6-methoxy-7-ethoxy-4-(3-chloro-4-fluoroanilino)-benzo[d][1,2,3]triazine]
[2]
  The inhibitory effect on the growth of chorioallantoic membrane vessels: One embryo is dead, and the other exhibits no significant inhibition
Rat aortic ring
  Rat Aortic Ring Assay (10 ug/ml), result in words: No significant inhibition
VEGFR-2
  Kinase inhibition rate (VEGFR-2): 46.67

## CCCCOc1cc2nnnc(Nc3cccc(Cl)c3)c2cc1OC [Example 21, 6-methoxy-7-n-butoxy-4-(3-chloroanilino)-benzo[d][1,2,3]triazine]
[2]
  The inhibitory effect on the growth of chorioallantoic membrane vessels: The vessels covered by paper become thinner, and another embryo is dead.
Rat aortic ring
  Rat Aortic Ring Assay (10 ug/ml), result in words: No significant inhibition
VEGFR-2
  Kinase inhibition rate (VEGFR-2): 2.40

## Fc1ccc(Nc2nnnc3ccc(Cl)nc23)cc1 [Example 93, 6-chloro-4-(4-fluoroanilino)pyrido[3,2-d][1,2,3]triazine]
[1]
  pIC50: 4.93
[2]
  The inhibitory effect on the growth of chorioallantoic membrane vessels: One of the two samples exhibits death of the embryo, and the other exhibits
VEGFR-2
  Kinase inhibition rate (VEGFR-2): 5.27

## Clc1ccc2nnnc(Nc3cccc(Br)c3)c2n1 [Example 92, 6-chloro-4-(3-bromoanilino)-pyrido[3,2-d][1,2,3]triazine]
[1]
  pIC50: 5.14
[2]
  The inhibitory effect on the growth of chorioallantoic membrane vessels: One of the two samples exhibits significant vascular inhibition.
Rat aortic ring
  inhibition at 10 µg/mL: > 50%
